This passage reports Dmax, IC50 and DC50 results from patent US12310975B2, “Modulators of BCL6 proteolysis and associated methods of use” (Arvinas Operations, Inc., priority 2019, dated 2025).

Usually Dmax stands for the largest share of the target that was removed. A higher Dmax goes with deep degradation. One may read the IC50 as the midpoint of a concentration-inhibition curve. A higher IC50 goes with weaker potency in that assay.

Where two headings read alike, the source gives them in different places.

The experiment has as its target BCL6 (Homo sapiens (Human), UniProt P41182). The experiment in a line: Immunofluorescence high content imaging of BCL6 degradation in T47D cells. In kind it is cell-based. Particulars: for DC50: class symbols A-D, read-out: EC50 (nM)*. The procedure, abridged: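 T47D cells were treated for 3 days at 37 °C with 11-point 3-fold dilutions of bifunctional degrader (final top 0.1 or 1 μM). BCL6 was detected by immunofluorescence after PFA fixation, with Hoechst and cell mask counterstains, and imaged at 10×, 4 fields/well.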

`CNC(=O)COc1cc2cc(Nc3nc(N4CCC(CN5CCC6(CC5)CN(c5cccc(C(=O)NC7CCC(=O)NC7=O)c5F)C6)CC4)ncc3Cl)ccc2n(C(C)C)c1=O` (centres unmarked) [compound 419, 3-[7-({1-[5-chloro-4-({3-[(methylcarbamoyl)methoxy]-2-oxo-1-(propan-2-yl)-1,2-dihydroquinolin-6-yl}amino)pyrimidin-2-yl]piperidin-4-yl}methyl)-2,7-diazaspiro[3.5]nonan-2-yl]-N-(2,6-dioxopiperidin-3-yl)-2-fluorobenzamide] displayed a Dmax (T47D cells) of at least 70%.

In the case of `CCCOc1cc(N2CCC(CN3CCN(c4ncc(Cl)c(Nc5ccc6c(c5)cc(OCC(=O)NC)c(=O)n6C)n4)CC3)CC2)ccc1C(=O)NC1CCC(=O)NC1=O` (centres unmarked) [compound 345, 4-[4-({4-[5-chloro-4-({1-methyl-3-[(methylcarbamoyl)methoxy]-2-oxo-1,2-dihydroquinolin-6-yl}amino)pyrimidin-2-yl]piperazin-1-yl}methyl)piperidin-1-yl]-N-(2,6-dioxopiperidin-3-yl)-2-propoxybenzamide], the IC50 (T47D cells) is at least 100 nM. With `CNC(=O)COc1cc2cc(Nc3nc(N4CCC(F)(CN5CCN(c6ccc(C(=O)NC7CCC(=O)NC7=O)c(OC)c6)CC5)CC4)ncc3Cl)ccc2n(C)c1=O` (centres unmarked) [compound 366, 4-[4-({1-[5-chloro-4-({1-methyl-3-[(methylcarbamoyl)methoxy]-2-oxo-1,2-dihydroquinolin-6-yl}amino)pyrimidin-2-yl]-4-fluoropiperidin-4-yl}methyl)piperazin-1-yl]-N-(2,6-dioxopiperidin-3-yl)-2-methoxybenzamide], under “T47D cells”, the Dmax was 50 to 70% and the IC50 is under 10 nM. Consider `CNC(=O)COc1cc2cc(Nc3nc(N4CCC(OCCOCCOCCOCCc5cccc(Oc6ccc7c(c6)CN(C6CCC(=O)NC6=O)C7=O)c5)CC4)ncc3Cl)ccc2n(C)c1=O` (centres unmarked) [compound 126, 2-((6-((5-chloro-2-(4-(2-(2-(2-(3-((2-(2,6-dioxopiperidin-3-yl)-1-oxoisoindolin-5-yl)oxy)phenethoxy)ethoxy)ethoxy)ethoxy)piperidin-1-yl)pyrimidin-4-yl)amino)-1-methyl-2-oxo-1,2-dihydroquinolin-3-yl)oxy)-N-methylacetamide], for which the DC50 is over 100 nM. In turn, `CNC(=O)COc1cc2cc(Nc3nc(N4CCC(CN5CC6(C5)CN(c5cccc7c5C(=O)N(C5CCC(=O)NC5=O)C7=O)C6)CC4)ncc3Cl)ccc2n(C)c1=O` (centres unmarked) [compound 256, 2-((6-((5-chloro-2-(4-((6-(2-(2,6-dioxopiperidin-3-yl)-1,3-dioxoisoindolin-4-yl)-2,6-diazaspiro[3.3]heptan-2-yl)methyl)piperidin-1-yl)pyrimidin-4-yl)amino)-1-methyl-2-oxo-1,2-dihydroquinolin-3-yl)oxy)-N-methylacetamide] showed a half-maximal inhibitory concentration (IC50) of under 10 nM. The same compound returned a Dmax (T47D) of 50 to 70%. With `CNC(=O)COc1cc2cc(Nc3nc(N4CC5(CC(OC6CCN(c7cccc8c7C(=O)N(C7CCC(=O)NC7=O)C8=O)CC6)C5)C4)ncc3Cl)ccc2n(C(C)C)c1=O` (centres unmarked) [compound 406, 2-{[6-({5-chloro-2-[6-({1-[2-(2,6-dioxopiperidin-3-yl)-1,3-dioxo-2,3-dihydro-1H-isoindol-4-yl]piperidin-4-yl}oxy)-2-azaspiro[3.3]heptan-2-yl]pyrimidin-4-yl}amino)-2-oxo-1-(propan-2-yl)-1,2-dihydroquinolin-3-yl]oxy}-N-methylacetamide], where the note is “T47D cells”, the Dmax is at least 70% and the IC50 was under 10 nM.

Regarding `CNC(=O)COc1cc2cc(Nc3nc(N4CCC(OC5CC6(C5)CN(c5cccc(C(=O)NC7CCC(=O)NC7=O)c5F)C6)CC4)ncc3Cl)ccc2n(C(C)C)c1=O` (centres unmarked) [compound 430, 3-[6-({1-[5-chloro-4-({3-[(methylcarbamoyl)methoxy]-2-oxo-1-(propan-2-yl)-1,2-dihydroquinolin-6-yl}amino)pyrimidin-2-yl]piperidin-4-yl}oxy)-2-azaspiro[3.3]heptan-2-yl]-N-(2,6-dioxopiperidin-3-yl)-2-fluorobenzamide], where the note is “T47D cells”, the Dmax was 50 to 70% and the IC50 lay within 10 to 50 nM. `CNC(=O)CCN1Cc2cc(Nc3nc(N4CCN(CC5CCN(c6ccc7c(c6)C(=O)N(C6CCC(=O)NC6=O)C7=O)CC5)CC4)ncc3Cl)ccc2CC1=O` (centres unmarked) [compound 395, 3-[7-({5-chloro-2-[4-({1-[2-(2,6-dioxopiperidin-3-yl)-1,3-dioxo-2,3-dihydro-1H-isoindol-5-yl]piperidin-4-yl}methyl)piperazin-1-yl]pyrimidin-4-yl}amino)-3-oxo-1,2,3,4-tetrahydroisoquinolin-2-yl]-N-methylpropanamide]: the IC50 (T47D cells) stood at 1000 nM. Consider `CNC(=O)COc1cc2cc(Nc3nc(N4CCC(c5cccc(OCCOCCOCCOCCOc6ccc7c(c6)CN(C6CCC(=O)NC6=O)C7=O)c5)CC4)ncc3Cl)ccc2n(C)c1=O` (centres unmarked) [compound 88, 2-((6-((5-chloro-2-(4-(3-(2-(2-(2-(2-((2-(2,6-dioxopiperidin-3-yl)-1-oxoisoindolin-5-yl)oxy)ethoxy)ethoxy)ethoxy)ethoxy)phenyl)piperidin-1-yl)pyrimidin-4-yl)amino)-1-methyl-2-oxo-1,2-dihydroquinolin-3-yl)oxy)-N-methylacetamide], for which the DC50 lay within 10 to 50 nM. Consider `CNC(=O)COc1cc2cc(Nc3nc(N4CCC(CN5CC6(C5)CN(c5ccc7c(c5)C(=O)N(C5CCC(=O)NC5=O)C7=O)C6)CC4)ncc3Cl)ccc2n(C(C)C)c1=O` (centres unmarked) [compound 306, 2-{[6-({5-chloro-2-[4-({6-[2-(2,6-dioxopiperidin-3-yl)-1,3-dioxo-2,3-dihydro-1H-isoindol-5-yl]-2,6-diazaspiro[3.3]heptan-2-yl}methyl)piperidin-1-yl]pyrimidin-4-yl}amino)-2-oxo-1-(propan-2-yl)-1,2-dihydroquinolin-3-yl]oxy}-N-methylacetamide], for which the IC50 is under 10 nM. Also, the Dmax (T47D) is at least 70%.

As to `CNC(=O)COc1cc2cc(Nc3nc(N4CCC(O[C@H]5C[C@H](N6CCC(c7ccc8c(c7)C(=O)N(C7CCC(=O)NC7=O)C8=O)CC6)C5)CC4)ncc3Cl)ccc2n(C(C)C)c1=O` (some centres unmarked) [compound 403, 2-({6-[(5-chloro-2-{4-[(1r,3r)-3-{4-[2-(2,6-dioxopiperidin-3-yl)-1,3-dioxo-2,3-dihydro-1H-isoindol-5-yl]piperidin-1-yl}cyclobutoxy]piperidin-1-yl}pyrimidin-4-yl)amino]-2-oxo-1-(propan-2-yl)-1,2-dihydroquinolin-3-yl}oxy)-N-methylacetamide], for the setting “T47D cells”, the greatest degradation seen (Dmax) was in the range of 50 to 70% and the IC50 is under 10 nM. `CCn1c(=O)c(OCC(=O)NC)cc2cc(Nc3nc(N4CCN(C(C)(C)C5CCN(c6ccc7c(c6)CN(C6CCC(=O)NC6=O)C7=O)CC5)CC4)ncc3Cl)ccc21` (centres unmarked) [compound 313, 2-{[6-({5-chloro-2-[4-(2-{1-[2-(2,6-dioxopiperidin-3-yl)-1-oxo-2,3-dihydro-1H-isoindol-5-yl]piperidin-4-yl}propan-2-yl)piperazin-1-yl]pyrimidin-4-yl}amino)-1-ethyl-2-oxo-1,2-dihydroquinolin-3-yl]oxy}-N-methylacetamide] had an IC50 of under 10 nM. The same compound displayed a Dmax (T47D) of 50 to 70%. The compound `CNC(=O)COc1cc2cc(Nc3cc(N4CCN(C(C)(C)C5CCN(c6ccc7c(c6)C(=O)N(C6CCC(=O)NC6=O)C7=O)CC5)CC4)ncc3Cl)ccc2n(C(C)C)c1=O` (centres unmarked) [compound 308, 2-{[6-({5-chloro-2-[4-(2-{1-[2-(2,6-dioxopiperidin-3-yl)-1,3-dioxo-2,3-dihydro-1H-isoindol-5-yl]piperidin-4-yl}propan-2-yl)piperazin-1-yl]pyridin-4-yl}amino)-2-oxo-1-(propan-2-yl)-1,2-dihydroquinolin-3-yl]oxy}-N-methylacetamide] returned an IC50 of 10 to 50 nM. For the same compound, the Dmax (T47D) is under 50%. For `CNC(=O)COc1cc2cc(Nc3nc(N4CCN(C(C)(C)C5CCN(c6ccc(OC)c(C(=O)NC7CCC(=O)NC7=O)c6F)CC5)CC4)ncc3Cl)ccc2n(C)c1=O` (centres unmarked) [compound 468, 3-[4-(2-{4-[5-chloro-4-({1-methyl-3-[(methylcarbamoyl)methoxy]-2-oxo-1,2-dihydroquinolin-6-yl}amino)pyrimidin-2-yl]piperazin-1-yl}propan-2-yl)piperidin-1-yl]-N-(2,6-dioxopiperidin-3-yl)-2-fluoro-6-methoxybenzamide], the Dmax (T47D) is at least 70%. As to `CNC(=O)COc1cc2cc(Nc3nc(N4CCO[C@H](CCOc5ccc6c(c5)C(=O)N(C5CCC(=O)NC5=O)C6=O)C4)ncc3Cl)ccc2n(C(C)C)c1=O` (stereo partly drawn) [compound 379, 2-{[6-({5-chloro-2-[(2R)-2-(2-{[2-(2,6-dioxopiperidin-3-yl)-1,3-dioxo-2,3-dihydro-1H-isoindol-5-yl]oxy}ethyl)morpholin-4-yl]pyrimidin-4-yl}amino)-2-oxo-1-(propan-2-yl)-1,2-dihydroquinolin-3-yl]oxy}-N-methylacetamide], the IC50 (T47D cells) is at least 100 nM.

For the setting “T47D cells”, `CNC(=O)COc1cc2cc(Nc3nc(N4CC5(CCN(CC6CCN(c7ccc8c(c7)C(=O)N(C7CCC(=O)NC7=O)C8=O)CC6)CC5)C4)ncc3Cl)ccc2n(C(C)C)c1=O` (centres unmarked) [compound 422, 2-{[6-({5-chloro-2-[7-({1-[2-(2,6-dioxopiperidin-3-yl)-1,3-dioxo-2,3-dihydro-1H-isoindol-5-yl]piperidin-4-yl}methyl)-2,7-diazaspiro[3.5]nonan-2-yl]pyrimidin-4-yl}amino)-2-oxo-1-(propan-2-yl)-1,2-dihydroquinolin-3-yl]oxy}-N-methylacetamide] displayed a Dmax of 50 to 70% and a half-inhibitory concentration (IC50) of under 10 nM.

Take `CNC(=O)COc1cc2cc(Nc3nc(N4CCC(c5cn(CCOCCOc6ccc7c(c6)C(=O)N(C6CCC(=O)NC6=O)C7=O)nn5)CC4)ncc3Cl)ccc2n(C)c1=O` (centres unmarked) [compound 107, 2-((6-((5-chloro-2-(4-(1-(2-(2-((2-(2,6-dioxopiperidin-3-yl)-1,3-dioxoisoindolin-5-yl)oxy)ethoxy)ethyl)-1H-1,2,3-triazol-4-yl)piperidin-1-yl)pyrimidin-4-yl)amino)-1-methyl-2-oxo-1,2-dihydroquinolin-3-yl)oxy)-N-methylacetamide]: the DC50 was in the range of 10 to 50 nM.
